Assay [1] deals with ErbB2 (Homo sapiens, UniProt P04626). In words: Z'-LYTE biochemical assay, ErbB2 kinase inhibition. The protocol:
(§1) Compounds of the present invention were assayed as inhibitors of one or more of ErbB1, ErbB2, and/or ErbB4 in a manner substantially similar to the method described by Invitrogen Corp (Invitrogen Corporation, 1600 Faraday Avenue, Carlsbad, Calif., CA; http://www.invitrogen.com/downloads/Z-LYTE_Brochure—1205.pdf) using the Z′-LYTE™ biochemical assay procedure or similar biochemical assay. The Z′-LYTE™ biochemical assay employs a fluorescence-based, coupled-enzyme format and is based on the differential sensitivity of phosphorylated and non-phosphorylated peptides to proteolytic cleavage.

The target of assay [2] is ErbB4 (Homo sapiens, UniProt Q15303). Kind of assay: Z'-LYTE biochemical assay, ErbB4 kinase inhibition. The protocol:
as §1

The target in assay [3] is T1, ErbB4 kinase domain (Homo sapiens, UniProt Q15303).
T1 construct: ErbB4 kinase domain (Upstate) was incubated with compound; purchased Upstate
T1 sequence (Q15303 718-985 limits assumed): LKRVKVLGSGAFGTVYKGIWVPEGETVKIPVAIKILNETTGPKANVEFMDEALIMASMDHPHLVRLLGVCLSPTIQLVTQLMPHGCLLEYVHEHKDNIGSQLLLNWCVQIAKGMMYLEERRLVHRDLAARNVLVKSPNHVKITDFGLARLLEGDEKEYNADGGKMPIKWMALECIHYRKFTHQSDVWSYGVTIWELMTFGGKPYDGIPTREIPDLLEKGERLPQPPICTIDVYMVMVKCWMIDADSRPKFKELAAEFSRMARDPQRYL
Kind of assay: Mass spectrometry for ErbB4 (covalent modification). In kind it is binding. The following applies: 10-fold excess of compound, 90 minutes, MALDI. Here is the method:
ErbB4 kinase domain (Upstate) was incubated with compound for 90 minutes at 10-fold excess of compound I-1 to protein. 1 ul aliquots of the samples (total volume of 4.24 ul) were diluted with 10 ul of 0.1% TFA prior to micro C4 ZipTipping directly onto the MALDI target using Sinapinic acid as the desorption matrix (10 mg/ml in 0.1% TFA:Acetonitrile 50:50). For intact protein mass measurement the instrument was set in Linear mode using a pulsed extraction setting of 16,952 for the myoglobin standard used to calibrate the instrument
Intact ErbB4 protein occurs at MH+ of 35850 with corresponding sinapinic (matrix) adducts occurring about 200 Da higher. A stochiometric incorporation of the compound I-1 (Mw of 410 Da) produced a new mass peak which is approximately 410 Da higher (MH+ of 36260).

Assay [4] has as its system EGFR (ErbB1) in A431 human epidermoid carcinoma cells. In words: Washout experiment for EGFR activity in A431 cells. In kind it is cell-based. The protocol: A431 human epidermoid carcinoma cells were grown in 6-well plates to 90% confluence and then incubated in serum-free media for 18 hr. Duplicate sets of cells were treated with 1 μM designated compound for 1 hr. One set of cells was then stimulated with 100 ng/ml EGF for 5 min, and extracts were made as described. The other set of cells was washed free of the compound with warmed compound-free medium, incubated for 2 hr, washed again, incubated another 2 hr, washed again, and then incubated another 2 hr washed again and incubated for additional 2 hr and then stimulated with EGF.

Assay [5] addresses ErbB1 (Homo sapiens, UniProt P00533). Kind of assay: Z'-LYTE biochemical assay, ErbB1 kinase inhibition. A digest of the protocol:
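Fluorescence-based coupled-enzyme Z′-LYTE format: kinase phosphorylation of a peptide substrate is read by differential protease cleavage of phosphorylated versus non-phosphorylated peptide.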

The target of assay [6] is T2, EGFR mutant (C797S) (Homo sapiens, UniProt P00533, C797S).
T2 construct: Amino acids 696 to 1022 of the EGFR-WT kinase domain; six-histidine tag (TEV-cleavable) (C); made in house; host or cells: SF21 insect cells (baculovirus; P1 stocks in SF9)
In words: Mass spectrometry for EGFR mutant (C797S). In kind it is binding. The following applies: 10-fold excess of compound, up to 3 hrs, MALDI. Here is the method: Amino acids 696 to 1022 of the EGFR-WT kinase domain (NM_005228, NP_005219.2) was subcloned into the NcoI and HindIII sites of the pFastHTa vector (Invitrogen, Carlsbad, Calif.). To make the EGFR-mutant protein, the cysteine at position 797 was changed to a serine using the Stratagene QuikChange kit (Stratagene, Cedar Creek, Tex.), according to manufacturer's instructions.
EGFR wild type and EGFR mutant (C797S) was incubated with 10-fold excess of compound I-1 for 1 hr and 3 hrs. 1 ul aliquots of the samples (total volume 5-8 ul) were diluted with 10 ul of 0.1% TFA prior to micro C4 ZipTipping directly onto the MALDI target using Sinapinic acid as the desorption matrix (10 mg/ml in 0.1% TFA:Acetonitrile 50:50). […] (See FIG. 8).

For assay [7], the target named is BTK (Homo sapiens, UniProt Q06187). Kind of assay: Mass spectrometry for BTK (intact protein). In kind it is binding. The following applies: 10× excess, 1 hr, MALDI. Here is the method:
Intact BTK was incubated for 1 hr at a 10× fold excess of compound I-63 or I-66 to protein. Aliquots (2 ul) of the samples were diluted with 10 ul of 0.1% TFA prior to micro C4 ZipTipping directly onto the MALDI target using Sinapinic acid as the desorption matrix (10 mg/ml in 0.1% TFA:Acetonitrile 20:80). The top panels of FIGS. 12 and 13 show the mass spec trace of the intact BTK protein (m/z 81,169 Da). The bottom panels show the mass spec trace when BTK was incubated with compound I-63 (mw 424.5) or compound I-66 (mw 425.5) in FIGS. 12 and 13, respectively.

Structures are written as SMILES.

Chain of ErbB2 (P04626 23-1255): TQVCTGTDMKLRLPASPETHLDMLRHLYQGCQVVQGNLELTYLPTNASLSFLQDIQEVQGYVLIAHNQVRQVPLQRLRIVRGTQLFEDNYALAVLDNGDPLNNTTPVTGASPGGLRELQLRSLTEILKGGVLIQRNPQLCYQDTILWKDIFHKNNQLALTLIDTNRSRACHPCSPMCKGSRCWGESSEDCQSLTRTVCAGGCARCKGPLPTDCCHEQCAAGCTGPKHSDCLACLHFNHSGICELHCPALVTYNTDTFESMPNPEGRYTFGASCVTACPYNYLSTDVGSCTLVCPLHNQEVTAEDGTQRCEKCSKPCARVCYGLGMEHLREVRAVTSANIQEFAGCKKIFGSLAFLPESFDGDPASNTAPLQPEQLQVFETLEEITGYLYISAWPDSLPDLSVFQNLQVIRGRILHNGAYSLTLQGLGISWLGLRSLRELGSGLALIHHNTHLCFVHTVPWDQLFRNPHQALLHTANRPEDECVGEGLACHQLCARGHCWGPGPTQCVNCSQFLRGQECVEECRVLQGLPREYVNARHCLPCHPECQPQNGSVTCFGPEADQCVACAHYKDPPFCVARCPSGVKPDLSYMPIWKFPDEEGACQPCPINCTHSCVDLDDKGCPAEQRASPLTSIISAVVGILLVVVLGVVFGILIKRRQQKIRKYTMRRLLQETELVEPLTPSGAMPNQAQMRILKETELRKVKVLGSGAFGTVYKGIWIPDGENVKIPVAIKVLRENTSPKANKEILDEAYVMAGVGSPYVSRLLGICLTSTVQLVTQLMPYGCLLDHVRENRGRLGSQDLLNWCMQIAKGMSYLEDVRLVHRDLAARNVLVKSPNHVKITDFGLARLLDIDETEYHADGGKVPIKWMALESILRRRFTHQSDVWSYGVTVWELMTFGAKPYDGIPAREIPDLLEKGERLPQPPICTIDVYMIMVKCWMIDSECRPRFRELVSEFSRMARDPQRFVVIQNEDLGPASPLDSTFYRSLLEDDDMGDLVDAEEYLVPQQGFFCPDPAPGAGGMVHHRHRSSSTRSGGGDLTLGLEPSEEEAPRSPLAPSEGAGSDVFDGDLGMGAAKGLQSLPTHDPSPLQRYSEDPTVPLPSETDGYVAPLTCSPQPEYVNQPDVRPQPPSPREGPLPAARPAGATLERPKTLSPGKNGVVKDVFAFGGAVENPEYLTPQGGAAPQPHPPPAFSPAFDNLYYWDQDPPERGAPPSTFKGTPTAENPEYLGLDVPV
Chain of BTK (Q06187 whole entry): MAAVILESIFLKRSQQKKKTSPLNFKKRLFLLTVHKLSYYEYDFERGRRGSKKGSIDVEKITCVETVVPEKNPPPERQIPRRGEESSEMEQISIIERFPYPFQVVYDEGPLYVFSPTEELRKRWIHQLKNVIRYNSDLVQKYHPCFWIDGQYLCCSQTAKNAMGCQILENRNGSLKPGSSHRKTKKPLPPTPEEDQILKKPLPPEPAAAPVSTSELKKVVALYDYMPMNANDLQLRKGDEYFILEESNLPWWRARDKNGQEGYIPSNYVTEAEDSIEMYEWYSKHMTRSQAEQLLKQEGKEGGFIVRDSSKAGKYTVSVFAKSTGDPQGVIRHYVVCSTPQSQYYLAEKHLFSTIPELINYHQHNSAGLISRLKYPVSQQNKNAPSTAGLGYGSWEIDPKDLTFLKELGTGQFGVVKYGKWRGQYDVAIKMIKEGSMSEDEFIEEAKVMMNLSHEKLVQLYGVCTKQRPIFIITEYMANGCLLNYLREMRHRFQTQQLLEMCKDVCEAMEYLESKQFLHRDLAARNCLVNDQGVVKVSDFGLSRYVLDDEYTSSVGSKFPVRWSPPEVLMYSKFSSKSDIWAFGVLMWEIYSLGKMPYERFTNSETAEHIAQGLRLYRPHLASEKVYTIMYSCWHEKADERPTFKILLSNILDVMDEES
Chain of ErbB4 (Q15303 26-1308): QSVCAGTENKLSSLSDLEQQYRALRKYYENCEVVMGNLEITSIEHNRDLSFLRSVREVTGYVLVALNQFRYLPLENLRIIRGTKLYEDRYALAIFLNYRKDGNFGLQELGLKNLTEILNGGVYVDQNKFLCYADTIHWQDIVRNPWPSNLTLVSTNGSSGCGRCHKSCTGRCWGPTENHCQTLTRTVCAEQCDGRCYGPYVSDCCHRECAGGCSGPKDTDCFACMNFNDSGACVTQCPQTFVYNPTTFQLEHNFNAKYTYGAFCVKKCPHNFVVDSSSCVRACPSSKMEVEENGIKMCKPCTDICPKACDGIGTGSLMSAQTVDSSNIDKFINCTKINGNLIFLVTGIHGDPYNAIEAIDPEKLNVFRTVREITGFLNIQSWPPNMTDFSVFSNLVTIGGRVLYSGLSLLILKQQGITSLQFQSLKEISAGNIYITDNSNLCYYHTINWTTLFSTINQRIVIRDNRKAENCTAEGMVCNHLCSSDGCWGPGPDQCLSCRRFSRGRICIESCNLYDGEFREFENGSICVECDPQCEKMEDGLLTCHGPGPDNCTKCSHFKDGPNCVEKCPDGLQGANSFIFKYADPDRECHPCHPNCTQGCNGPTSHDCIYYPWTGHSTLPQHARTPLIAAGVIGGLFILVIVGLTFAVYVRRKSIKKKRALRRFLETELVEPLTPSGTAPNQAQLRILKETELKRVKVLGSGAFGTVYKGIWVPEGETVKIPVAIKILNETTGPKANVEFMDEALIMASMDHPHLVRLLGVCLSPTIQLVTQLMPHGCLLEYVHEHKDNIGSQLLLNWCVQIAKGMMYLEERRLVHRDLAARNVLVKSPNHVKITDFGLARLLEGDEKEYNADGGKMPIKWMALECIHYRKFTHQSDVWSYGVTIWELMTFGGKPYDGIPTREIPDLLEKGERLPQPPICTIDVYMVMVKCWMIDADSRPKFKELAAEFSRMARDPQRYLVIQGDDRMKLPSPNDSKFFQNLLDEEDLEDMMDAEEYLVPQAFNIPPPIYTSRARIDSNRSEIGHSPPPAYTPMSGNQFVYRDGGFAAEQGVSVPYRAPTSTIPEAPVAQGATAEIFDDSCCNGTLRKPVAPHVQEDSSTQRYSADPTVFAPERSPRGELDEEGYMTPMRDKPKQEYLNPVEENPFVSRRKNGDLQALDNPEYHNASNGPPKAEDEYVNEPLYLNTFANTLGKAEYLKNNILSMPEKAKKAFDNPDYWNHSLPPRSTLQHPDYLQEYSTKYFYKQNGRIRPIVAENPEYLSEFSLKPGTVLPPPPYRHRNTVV

What is called inhibition is the relative decrease from the control value, in per cent. Read a low inhibition as little suppression. For the molecule `C=CC(=O)Nc1cccc(Nc2cc(Nc3cccc(Br)c3)ncn2)c1` [I-1, N-{3-[6-(3-bromophenylamino)-pyrimidin-4-ylamino]-phenyl}-2-propenamide], the inhibition at 0.1 µM in assay [1] (@ 100 nM) was determined as 61%; in assay [2] (@ 100 nM), 64%. Moreover, the inhibition at 1 µM stood at 76% in assay [1] and 86% in assay [2] (@ 1 μM). Further, the “modification of ErbB4 by intact mass” value in assay [3] is listed as “covalent modification of ErbB4”. Moreover, the “enzyme inhibition after washout” value in assay [4] (A431 cells, 1 μM for 1 hr, washout, EGF stimulation) is listed as “maintains enzyme inhibition”. For the same molecule, the “type of binding to ErbB1 (irreversible / reversible)” value in assay [4] (washout experiment, FIG. 2) was “irreversibly binds to ErbB1”. In addition, the inhibition at 0.01 µM in assay [5] (@ 10 nM) was found to be 99%. The “reactivity with EGFR mutant (C797S) by intact mass” value in assay [6] is “no significant reactivity”.

With `C=CC(=O)Nc1cccc(Nc2cc(Nc3ccc(Oc4ccccc4)cc3)ncn2)c1` [I-13, N-{3-[6-(4-phenoxyphenylamino)-pyrimidin-4-ylamino]phenyl}-2 propenamide], the inhibition at 1 µM in assay [1] stood at 98%; in assay [5] (@ 1 μM), 92%.

Take `C=CC(=O)Nc1cccc(Nc2cc(Nc3ccc(Oc4ccccc4)cc3)ncn2)n1` [I-63]: the “modification of intact BTK by mass shift” value in assay [7] is recorded as “complete modification of BTK”.

On to `C=CC(=O)Nc1cccc(Nc2cc(Oc3ccc(Oc4ccccc4)cc3)ncn2)n1` [I-66], for which the “modification of intact BTK by mass shift” value in assay [7] is listed as “complete modification of BTK”.

These data come from patent US9296704B2, “Substituted pyrimidines as protein kinase inhibitors” (CELGENE AVILOMICS RESEARCH, INC., priority 2007, dated 2016).
